The target in assay [1] is T1, NMA1982 (Neisseria meningitidis, UniProt A1KVD0).
T1 construct: gene NMC1647

Assay [2] deals with T1, NMA1982. This is another data set of the same source.

Each structure is given as a SMILES string.

T1 sequence (A1KVD0 entry or part of it): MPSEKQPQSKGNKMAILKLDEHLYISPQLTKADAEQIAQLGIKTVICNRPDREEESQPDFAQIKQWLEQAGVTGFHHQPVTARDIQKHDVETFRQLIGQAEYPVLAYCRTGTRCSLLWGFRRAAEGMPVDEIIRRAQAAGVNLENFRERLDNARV

As to `Cc1cc(=O)oc2c(F)c(OP(=O)(O)O)c(F)cc12` [DiFMUP], the Km (as a rule, the concentration of substrate that gives half-maximal velocity) in assay [1] came out at 35 µM. `[O]=[V]([OH])([OH])[OH]` [sodium orthovanadate]: in assay [2], the IC50 (usually the concentration that gives 50% inhibition) came to 161 µM.

Source of the values: article PMC10716126, “Enzyme mechanistic studies of NMA1982, a protein tyrosine phosphatase and potential virulence factor in Neisseria meningitidis” (Scientific Reports, 2023).
